In patent US12636378B2, “Targeted antigen delivery system and uses thereof” (SRI International, priority 2020, dated 2026):
Entries after “also recorded” stand apart in the source; their conditions may differ. Where two headings read alike, the source gives them in different places. No end group written: not given here.

Assays:
[1] = test system: panel of cancer cell lines; assay: Binding in a panel of cancer cell lines; assay type: cell-based
[2] = test system: three human NSCLC cell lines; assay: Quantitative flow cytometry uptake assay, NSCLC cell lines; assay type: cell-based
Procedure: Uptake is represented as an average number of peptides per cell. Error bars are smaller than the symbol for some points.
(§1) A quantitative flow cytometry assay was performed that measures the average number of molecules of peptide internalized per cell. […] The number of molecules internalized ranges from 1×10^5 molecules/cell for H358 cells to 8×10^5 for H1993 cells, corresponding to intracellular concentrations of 100-800 nM. The rate of uptake at 6 hours is not saturated and it appears that peptide continues to enter the cell past this time (FIG. 5 and FIG. 6). This indicates either high receptor numbers which have not yet saturated or rapid recycling of the receptor that allows for continual delivery, reaching high intracellular concentrations of the peptide.

H1993 cells [3] = test system: H1993 cells
4T1 cells = assay: Quantitative flow cytometry binding and internalization in 4T1 cells; assay type: cell-based, mouse
[4] = test system: pancreatic cancer line (Pan02); assay: Flow cytometry binding and internalization in Pan02 cells; assay type: cell-based, mouse
From the text: (§2) The final optimized SRI_MGS5_V1 peptide, SRI_MGS5_V2, has the following characteristics.

[5] = test system: 4T1 cells implanted in mammary fat pads; conditions: nIR dye-labelled peptide
[6] = test system: subcutaneous H1993 NSCLC tumor; assay: NIR imaging of dye-labeled peptides in mice with subcutaneous H1993 tumor; assay type: in vivo; conditions: for tumor accumulation / tumor targeting: Alexa Fluor 750 conjugate, tail vein injection
Procedure: The peptides were conjugated to Alexa Fluor 750 dye and […] injected intravenously via the tail vein into mice bearing a subcutaneous H1993 NSCLC tumor on their right flank.
SRI_MGS5_V2 and parental SRI_MGS5_V1 were labeled with the near-infrared dye Alexa Fluor 750 for imaging. […] For example, SRI_MGS5_V2 has 3-fold lower signal in the lung compared to SRI_MGS5_V1. […] Importantly, the corresponding nonacetylated versions of each peptide were evaluated as well.

LLC1 cells [7] = assay: Co-culture assay, liposome treated LLC1 cells, cytokine ELISA; assay type: cell-based, murine
Procedure: TALL treated LLC1 cells were co-cultured with HLA-A2 positive PBMCs and culture supernatants were analyzed for TNF-α a secretion. […] Concentration of all liposomes used in this assay corresponded to ≈4.5 mg/ml of phosphatidyl choline. Free H250 peptide control is incubated at 5 μmol/L.
TALL treated LLC1 cells were co-cultured with HLA-A2 positive PBMCs and culture supernatants were analyzed for IFN-γ secretion. […] Concentration of all liposomes used in this assay corresponded to ≈4.5 mg/ml of phosphatidyl choline. Free H250 peptide control is incubated at 5 μmol/L.
(§3) The liposomes were loaded with the H250 antigenic peptide and SRI_MGS5_V2 or SRI_MGS5_V1 was conjugated to the external face of the liposome via maleimide chemistry. The liposomes were incubated with H1993 cells followed by co-culture with peripheral blood mononuclear cells (PBMCs) from an anonymous donor that is haplotype HLA A2+ and vaccinated against measles. […] More experiments testing different liposome variants and assessing TNF-α and INF-γ in co-culture were performed. […] The same experiments were completed using mouse LLC1 cells as the antigen presenting cells and lymph node lymphocytes (LNL) from C57B1/6 mice that had been vaccinated against HA.

[8] = test system: breast cancer lines (MCF-7, MDA-MB-231and 4T1); assay: Binding to breast cancer lines; assay type: cell-based
From the text: as §2

H1993 cells [9] = assay: Co-culture assay, liposome treated H1993 cells with HLA-A2 positive PBMCs, cytokine ELISA; assay type: cell-based, human
Procedure: TALL treated H1993 cells were co-cultured with HLA-A2 positive PBMCs and culture supernatants were analyzed for TNF-α secretion. Concentration of all liposomes used in this assay corresponded to ≈4.5 mg/ml of phosphatidyl choline. Free H250 peptide control is incubated at 5 μmol/L.
TALL treated H1993 cells were co-cultured with HLA-A2 positive PBMCs and culture supernatants were analyzed for IFNγ secretion. Concentration of all liposomes used in this assay corresponded to ≈4.5 mg/ml of phosphatidyl choline. Free H250 peptide control is incubated at 5 μmol/L.
as §3

LLC1 cells [10] = assay: Confocal microscopy, autophagic vesicles in LLC1 cells; assay type: cell-based, mouse
From the text: (§4) Therefore, accumulation in autophagosomes is a necessary component for success of this immunotherapy.

LLC1 tumors = conditions: 15 μg I.V., Alexa Fluor 750 conjugate, 72 hours
Procedure: The LLC1 tumors were grown until palpable (≈500 mm^3) at which point mice were treated I.V. with 15 μg of SRI_MGS5_V2 conjugated to Alexa Fluor 750. Images were taken daily for 72 hours, after which the animal was sacrificed, and its organs were assessed to determine localization of the targeting peptide.

H358 cells = assay: Quantitative flow cytometry uptake assay, H358; assay type: cell-based, human
Procedure: H358 cell line data has been not included in FIG. 6 for clarity due to differences in the Y axis.
as §1

[11] = test system: glioma cell line (GL-261); assay: Flow cytometry binding and internalization in GL261 cells; assay type: cell-based, mouse
From the text: as §2

[12] = test system: Multiple Different Cancer Types; assay: Functional presentation of antigenic peptide in multiple cancer types; assay type: cell-based
From the text: Treatment groups: A—MGS5_V2 Targeted Liposome Loaded with H250 Antigen; B—Positive Control: Cells Pulsed with Free H250 Antigen; C—No MGS on Liposome Loaded with H250 Antigen; D—Blank Liposomes—no H250 Antigen.

[13] = test system: GL261 cells implanted in the brain; conditions: fluorescent dye-labelled peptide
[14] = test system: normal control human lung epithelial cell line (HBEC); assay: Binding to normal lung epithelial cells; assay type: cell-based
From the text: as §2

NSCLC lines = assay: Flow cytometry binding to NSCLC lines; assay type: cell-based, human
From the text: as §2

H1993 cells [15] = assay: Quantitative flow cytometry uptake assay, H1993; assay type: cell-based, human
Procedure: as §1

H1993 NSCLC cells = assay: Confocal microscopy, co-localization of peptide with autophagic vesicles; assay type: cell-based, human; conditions: 100 nM
Procedure: FIGS. 7A-7C show an example of co-localization of SRI_MGS5_V2 peptides with autophagic vesicles (A) H1993 cells treated with 100 nM of SRI_MGS5_V1 peptide (panel A) and optimized SRI_MGS_V2 (panels B and C) conjugated with Alexa Fluor 647 (Red). Autophagosomes are stained with LC3B antibody (Green). The regions corresponding to co-localization of the peptide and autophagic vesicles are shown in yellow.
as §4

Pan02 cells = conditions: fluorescent dye-labelled peptide
[16] = HLA A*02:01 patients; cited from earlier work
[17] = Physicochemical properties of peptides (hydrophobicity, solubility, stability)
cancer cells = conditions: cited from earlier work
[18] = test system: normal control human lung epithelial cell line (HBEC); conditions: cited from earlier work

(CH3CO-LQWRRNFGVWARYRL-PEG11)2K-X (not fully specified; N-acetyl, PEG11, dimerized on lysine core, tag X; targeting sequence) [SRI_MGS5_V2]
binding in a panel of cancer cell lines [1]: improved binding
uptake at low temperature ([2]; 4° C.): greatly reduced
rate of uptake ([2]; at 6 hours, 100 nM dye-labeled peptide): not saturated
intracellular concentrations ([2]; corresponding to molecules/cell from H358 to H1993): 100 to 800 nM
internalization ([2]; three human NSCLC cell lines): is internalized
cell viability (H1993 cells [3]; 72 hours, concentrations as high as 250 μM): No significant loss of viability
toxicity of uptake (H1993 cells [3]; H1993 cells): not toxic
binding and internalization in 4T1 cells (4T1 cells): concentration dependent binding and internalization
binding (and internalization) in Pan02 cells [4]: shown to bind; also recorded: binds
binding (and internalization) in Pan02 cells ([4]; listed as MGS5_V2): concentration dependent binding and internalization
tumor localization, orthotopic 4T1 [5]: homes to tumors
tumor localization, orthotopic 4T1 ([5]; listed as MGS5_V2): localized within the tumors
tumor accumulation / tumor targeting [6]: accumulate specifically
non-specific accumulation in the lung and other organs vs acetylated SRI_MGS5_V1 ([6]; ex vivo imaging at 72 H): reduced non-specific accumulation
less signal in the kidneys compared to SRI_MGS5_V1 ([6]; ex vivo, 72 H): 2.2 fold
extent of tumor uptake, V1 versus V2 ([6]; mouse, in vivo): roughly the same degree
less signal in the liver compared to SRI_MGS5_V1 ([6]; mouse, in vivo): 1.6 fold
lower signal in the lung compared to SRI_MGS5_V1 ([6]; mouse, in vivo): 3 fold
time to localization at the tumor site ([6]; mouse, in vivo): ≤ 24 h
tumor signal maintained ([6]; mouse, in vivo): 72 h
presentation of encapsulated immunogenic peptide in HLA class I molecules (IFN-γ ELISA) (LLC1 cells [7]): facilitates presentation
presentation of encapsulated immunogenic peptide in HLA class I molecules (TNF-α ELISA) (LLC1 cells [7]): facilitates presentation
binding to breast cancer lines [8]: shown to bind; also recorded: binds
presentation of encapsulated immunogenic peptide in HLA class I molecules (IFNγ ELISA) (H1993 cells [9]): facilitates presentation
presentation of encapsulated immunogenic peptide in HLA class I molecules (TNF-α ELISA) (H1993 cells [9]): facilitates presentation
accumulation in autophagic vesicles (LLC1 cells [10]): Comparable results
localization in LLC1 tumor (LLC1 tumors; listed as SRI_MGS2_V2): successfully localized
localization in LLC1 tumor (LLC1 tumors; listed as SRI_MGS5_V5): homes to LLC1 tumors
number of molecules internalized (H358 cells): 1×10^5 molecules/cell
binding (and internalization) in GL261 cells [11]: shown to bind; also recorded: binds
binding (and internalization) in GL261 cells ([11]; listed as MGS5_V2): concentration dependent binding and internalization
functional presentation of antigenic peptide [12]: Mediates Functional Presentation
tumor localization, orthotopic GL261 [13]: homes to tumors
tumor localization, orthotopic GL261 ([13]; listed as MGS5_V2): targets GL261 cells
discrimination between NSCLC cancer and normal cells in the lung [14]: high discriminating power
binding to NSCLC lines compared to parental SRI_MGS5_V1 (NSCLC lines): greater binding affinity; also recorded: increased binding
number of molecules internalized (H1993 cells [15]): 8×10^5 molecules/cell
accumulation in autophagic vesicles compared to parental MGS5_V1 (H1993 NSCLC cells): much greater extent
tumor localization, orthotopic Pan02 (Pan02 cells): homes to tumors
tumor localization, orthotopic Pan02 (Pan02 cells; listed as MGS5_V2): localized in the tumor

ILPGQDLQYV [H516]
immunogenic response [16]: highly immunogenic

SLSAYIIRV [H3L, SLSAYIIRV]
biophysical properties [17]: hydrophobic, difficult to purify, and unstable

SLWGSLLML [C166, SLWGSLLML]
biophysical properties [17]: hydrophobic, difficult to purify, and unstable

SMYRVFEVGV [H250, measles virus hemagglutinin peptide, HLA class I (A*02:01) restricted]
immunogenic response [16]: strong CD8 specific IFNγ response; also recorded: strong CD8 specific IFNy response

SRI_MGS5_V1: parental tumor-targeting peptide, dimer comprising LQWRRDDNVHNFGVWARYRL (SEQ ID NO:2) (also: dimer) [reference compound]
accumulation in cancer cells (cancer cells): selectively accumulate
off-tumor signal in vivo ([6]; 24 H): significant signal along the dorsal side
tumor accumulation / tumor targeting [6]: accumulate specifically
extent of tumor uptake, V1 versus V2 ([6]; mouse, in vivo): roughly the same degree
time to localization at the tumor site ([6]; mouse, in vivo): ≤ 24 h
tumor signal maintained ([6]; mouse, in vivo): 72 h
binding to normal human bronchial epithelial cells [18]: limited binding
